Data reported in patent US11021481B2, “Substituted isoindolin-1-ones and 2,3-dihydro-1h-pyrrolo[3,4-c]pyridin-1-ones as HPK1 antagonists” (Nimbus Saturn, Inc., priority 2019, dated 2021).
Structures can show the parent of a compound that is named as a salt.

Target: HPK1 (Homo sapiens (Human), UniProt Q92918)
Assay: HPK1 biochemical enzyme assay (microfluidic mobility shift assay)
Settings: 1.5 nM HPK1, ATP 1 mM final, 30 min preincubation, 60 min at RT, Caliper EZ Reader; read-out: HPK1 1000UMATP caliper IC50
Outline: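 Mobility shift readout of HPK1 activity after a 60 min RT reaction with 1 mM ATP, 1 μM substrate and 5 mM MgCl2. Enzyme/substrate mix was first exposed to compounds for 30 min, using ten-point curves topping at 3 μM final.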

Chain of HPK1 (Q92918 whole entry): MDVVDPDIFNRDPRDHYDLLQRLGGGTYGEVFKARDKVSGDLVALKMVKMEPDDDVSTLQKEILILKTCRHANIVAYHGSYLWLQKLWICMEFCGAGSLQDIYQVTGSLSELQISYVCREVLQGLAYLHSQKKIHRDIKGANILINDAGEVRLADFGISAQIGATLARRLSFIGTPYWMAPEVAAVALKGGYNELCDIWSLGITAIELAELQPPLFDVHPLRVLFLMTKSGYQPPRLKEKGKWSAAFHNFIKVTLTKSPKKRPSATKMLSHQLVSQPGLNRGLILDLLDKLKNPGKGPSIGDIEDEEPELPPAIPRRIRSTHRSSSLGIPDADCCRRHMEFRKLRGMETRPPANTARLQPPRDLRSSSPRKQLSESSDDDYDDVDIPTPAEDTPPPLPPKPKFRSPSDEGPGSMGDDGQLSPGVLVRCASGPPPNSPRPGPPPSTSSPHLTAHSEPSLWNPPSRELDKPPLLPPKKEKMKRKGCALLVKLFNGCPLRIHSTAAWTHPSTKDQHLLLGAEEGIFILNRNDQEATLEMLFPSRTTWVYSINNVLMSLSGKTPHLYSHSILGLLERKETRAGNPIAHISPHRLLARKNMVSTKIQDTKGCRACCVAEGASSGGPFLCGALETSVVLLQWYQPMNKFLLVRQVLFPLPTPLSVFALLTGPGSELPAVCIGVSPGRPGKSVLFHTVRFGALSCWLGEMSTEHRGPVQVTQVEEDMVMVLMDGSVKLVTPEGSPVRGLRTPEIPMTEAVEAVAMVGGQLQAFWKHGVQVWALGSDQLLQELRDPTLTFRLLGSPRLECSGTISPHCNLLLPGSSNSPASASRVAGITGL

IC50, < 100 nM:
CN(C[C@@H]1CN(c2ccc(Nc3ccc(-c4cnc5cc(F)ccn45)c4c3C(=O)NC4)nc2)CCO1)C1CC1 [I-494, 7-[[5-[(2R)-2-[[cyclopropyl (methyl)amino]methyl]morph-olin-4-yl]-2-pyridyl]amino]-4-(7-fluoroimidazo [1,2-a]pyridin-yl)isoindolin-1-one]
CN1CCOC2(CCCN(c3ccc(Nc4ccc(-c5cnc6cc(F)ccn56)c5c4C(=O)NC5)nc3)C2)C1 (stereo not drawn) [I-496, 4-(7-fluoroimidazo [1,2-a]pyridin-3-yl)-7-[[5-(4-methyl-1-oxa-4,8-diazaspiro[5.5]undecan-8-yl)-2-pyridyl]amino) isoindolin-1-one]
O=C1NCc2c(-c3cnc4cc(F)ccn34)ccc(Nc3cccc(N4CC[C@H]5CNC[C@H]54)n3)c21 [I-497, 4-(7-fluoroimidazo [1,2-a]pyridin-3-yl)-7-((6-((3aS,6aS)-hexahydropy-rrolo[3,4-b]pyrrol-1(2H)-yl)pyridin-2-yl)amino)isoin-dolin-1-one]
O=C1NCc2c(-c3cnc4cc(F)ccn34)ccc(Nc3cccc(N4CC[C@@H]5CNC[C@@H]54)n3)c21 [I-498, 4-(7-fluoroimidazo [1,2-a]pyridin-3-yl)-7-((6-((3aR,6aR)-hexahydropy-rrolo[3,4-b]pyrrol-1(2H)-yl)pyridin-2-yl)amino)isoin-dolin-1-one]
CN(C[C@H]1CN(c2ccc(Nc3ccc(-c4cnc5cc(F)ccn45)c4c3C(=O)NC4)nc2)CCO1)C1CC1 [I-499, 7-[[5-[(2S)-2-[[cyclopropyl (methyl)amino]methyl]morpholin-4-yl]-2-pyridyl]amino] 4-(7-fluoroimidazo [1,2-a]pyridin-3-yl)isoindolin-1-one]
O=C1NCc2c(-c3cnc4cc(F)ccn34)ccc(Nc3ccc(N4CCCC5(CNCCO5)C4)cn3)c21 (stereo not drawn) [I-500, 4-(7-fluoroimidazo [1,2-a]pyridin-3-yl)-7-[[5-(1-oxa-4,8-diazaspiro[5.5]undecan-8-yl)-2-pyridyl]amino] isoindolin-1-one]
O=C1NCc2c(-c3cnc4cc(F)ccn34)ccc(Nc3ccc(N4CCC[C@H](N5CCOCC5)C4)cn3)c21 [I-501, (S)-4-(7-fluoroimidazo [1,2-a]pyridin-3-yl)-7-((5-(3-morpholinopip-eridin-1-yl)pyridin-2-yl)amino)isoin-dolin-1-one]
O=C1NCc2c(-c3cnc4cc(F)ccn34)ccc(Nc3ccc(N4CCC[C@@H](N5CCOCC5)C4)cn3)c21 [I-502, (R)-4-(7-fluoroimidazo [1,2-a]pyridin-3-yl)-7-((5-(3-morpholinopip-eridin-1-yl)pyridin-2-yl)amino)isoin-dolin-1-one]
CN(C)CC1(F)CCCN(c2ccc(Nc3ccc(-c4cnc5cc(F)ccn45)c4c3C(=O)NC4)nc2)C1 (stereo not drawn) [I-503]
CCN(CC)Cc1nc(Nc2ccc(-c3cnc4cc(F)ccn34)c3c2C(=O)NC3)ccc1C1CCOC1 (stereo not drawn) [I-504, 7-[[6-(diethylaminomethyl)-5-tetrahydrofuran-3-yl-2-pyridyl]amino]-4-(7-fluoroimidazo [1,2-a]pyridin-3-yl)isoindolin-1-one]
O=C1NCc2c(-c3cnc4cc(F)ccn34)ccc(Nc3ccc(C4CCOC4)c(CN4CCCC4)n3)c21 (stereo not drawn) [I-505, 4-(7-fluoroimidazo [1,2-a]pyridin-3-yl)-7-[[6-(pyrrolidin-1-ylmethyl)-5-tetrahydrofuran-3-yl-2-pyridyl]amino]isoindolin-1-one]
CN1CCO[C@@]2(CCCN(c3ccc(Nc4ccc(-c5cnc6cc(F)ccn56)c5c4C(=O)NC5)nc3)C2)C1 [I-506, (S)-4-(7-fluoroimidazo [1,2-a]pyridin-3-yl)-7-((5-(4-methyl-1-oxa-4,8-diazaspiro[5.5]undecan-8-yl)pyridin-2-yl)amino)isoin-dolin-1-one]
CN1CCO[C@]2(CCCN(c3ccc(Nc4ccc(-c5cnc6cc(F)ccn56)c5c4C(=O)NC5)nc3)C2)C1 [I-506a, (R)-4-(7-fluoroimidazo [1,2-a]pyridin-3-yl)-7-((5-(4-methyl-1-oxa-4,8-diazaspiro[5.5]undecan-8-yl)pyridin-2-yl)amino)isoin-dolin-1-one]
O=C1NCc2c(-c3cnc4cc(F)ccn34)ccc(Nc3ccc(N4CCC[C@@]5(CNCCO5)C4)cn3)c21 [I-507, (R)-7-((5-(1-oxa-4,8-diazaspiro[5.5]undecan-8-yl)pyridin-2-yl)amino)-4-(7-fluoroimidazo [1,2-a]pyridin-3-yl)isoindolin-1-one]
O=C1NCc2c(-c3cnc4cc(F)ccn34)ccc(Nc3ccc(N4CCC[C@]5(CNCCO5)C4)cn3)c21 [I-508, (S)-7-((5-(1-oxa-4.8-diazaspiro[5.5]undecan-8-yl)pyridin-2-yl)amino)-4-(7-fluoroimidazo [1,2-a]pyridin-3-yl)isoindolin-1-one]
CN(C)C1COCCN(c2ccc(Nc3ccc(-c4cnc5cc(F)ccn45)c4c3C(=O)NC4)nc2)C1 (stereo not drawn) [I-509, 7-[[5-[6-(dimethylami-no)-l,4-oxazepan-4-yl]-2-pyridyl]amino]-4-(7-fluoroimidazo [1,2-a]pyridin-3-yl)isoindolin-1-one Formic acid salt]
CCN(CC)Cc1nc(Nc2ccc(-c3cnc4cc(F)ccn34)c3c2C(=O)NC3)ccc1[C@H]1CCOC1 [I-510, (R)-7-((6-((diethylamino)-methyl)-5-(tetrahydrofuran-3-yl)pyridin-2-yl)amino)-4-(7-fluoroimidazo [1,2-a]pyridin-3-yl)isoindolin-1-one]
CCN(CC)Cc1nc(Nc2ccc(-c3cnc4cc(F)ccn34)c3c2C(=O)NC3)ccc1[C@@H]1CCOC1 [I-511, (S)-7-((6-((diethylamino)methyl)-5-(tetrahydrofuran-3-yl)pyridin-2-yl)amino)-4-(7-fluoroimidazo [1,2-a]pyridin-3-yl)isoindolin-1-one]
O=C1NCc2c(-c3cnc4cc(F)ccn34)ccc(Nc3ccc(N4CCO[C@H](Cn5ccnc5)C4)cn3)c21 [I-512, 4-(7-fluoroimidazo [1,2-a]pyridin-3-yl)-7-[[5-[(2S)-2-(imidazol-1-ylmethyl)mor-pholin-4-yl]-2-pyridyl]amino] isoindolin-1-one]
O=C1NCc2c(-c3cnc4cc(F)ccn34)ccc(Nc3ccc([C@H]4CCOC4)c(CN4CCCC4)n3)c21 [I-515, (R)-4-(7-fluoroimidazo [1,2-a]pyridin-3-yl)-7-((6-(pyrrolidin-1-ylmethyl)-5-(tetrahydrofuran-3-yl)pyridin-2-yl)amino)isoin-dolin-1-one]
O=C1NCc2c(-c3cnc4cc(F)ccn34)ccc(Nc3ccc([C@@H]4CCOC4)c(CN4CCCC4)n3)c21 [I-516, (S)-4-(7-fluoroimidazo [1,2-a]pyridin-3-yl)-7-((6-(pyrrolidin-1-ylmethyl)-5-(tetrahydrofuran-3-yl)pyridin-2-yl)amino)isoin-dolin-1-one]
CN(C)CC1COCCN1c1ccc(Nc2ccc(-c3cnc4cc(F)ccn34)c3c2C(=O)NC3)nc1 (stereo not drawn) [I-517, 7-[ [5-[3-[(dimethylamino)-methyl]mor-pholin-4-yl]-2-pyridyl]amino]-4-(7-fluoroimidazo [1,2-a]pyridin-3-yl)isoindolin-1-one]
CN(C)[C@@H]1COCCN(c2ccc(Nc3ccc(-c4cnc5cc(F)ccn45)c4c3C(=O)NC4)nc2)C1 [I-518, (S)-7-((5-(6-(dimethylami-no)-1,4-oxazepan-4-yl)pyridin-2-yl)amino)-4-(7-fluoroimidazo [1,2-a]pyridin-3-yl)isoindolin-1-one]
CN(C)[C@H]1COCCN(c2ccc(Nc3ccc(-c4cnc5cc(F)ccn45)c4c3C(=O)NC4)nc2)C1 [I-519, (R)-7-((5-(6-(dimethylami-no)-1,4-oxazepan-4-yl)pyridin-2-yl)amino)-4-(7-fluoroimidazo [1,2-a]pyridin-3-yl)isoindolin-1-one]
C[C@@H](c1ccc(Nc2ccc(-c3cnc4cc(F)ccn34)c3c2C(=O)NC3)nc1)N(C)C [I-520, (S)-7-((5-(1-(dimethylami-no)ethyl)pyridin-2-yl)amino)-4-(7-fluoroimidazo [1,2-a]pyridin-3-yl)isoindolin-1-one]
C[C@H]1CN([C@@H](C)c2ccc(Nc3ccc(-c4cnc5cc(F)ccn45)c4c3C(=O)NC4)nc2)CCO1 [I-522, 4-(7-fluoroimidazo [1,2-a]pyridin-3-yl)-7-((5-((S)-1-((S)-2-methylmorpho-lino)ethyl)pyri-din-2-yl)amino) isoin-dolin-1-one]
C[C@H](c1ccc(Nc2ccc(-c3cnc4cc(F)ccn34)c3c2C(=O)NC3)nc1)N1CCO[C@@H](C)C1 [I-523, 4-(7-fluoroimidazo [1,2-a]pyridin-3-yl)-7-((5-((R)-1-((S)-2-methylmorpho-lino)ethyl)pyr-idin-2-yl)amino) isoin-dolin-1-one]
CN(C)Cc1nc(Nc2ccc(-c3cnc4cc(F)ccn34)c3c2C(=O)NC3)ccc1N1CCC[C@@H](O)C1 [I-524, 7-[[6-[(dimethylamino)-methyl]-5-[(3R)-3-hydroxy-1-piperipyl]-2-pyridyl]amino]-4-(7-fluoroimidazo [1,2-a]pyridin-3-yl)isoindolin-1-one]
CN(C)Cc1nc(Nc2ccc(-c3cnc4cc(F)ccn34)c3c2C(=O)NC3)ccc1N1CCOCC12CC2 [I-525, 7-[[6-[(dimethylamino)-methyl]-5-(7-oxa-4-azaspiro[2.5]octan-4-yl)-2-pyridyl]amino]-4-(7-fluoroimidazo [1,2-a]pyridin-3-yl)isoindolin-1-one]
C[C@@H](c1ccc(Nc2ccc(-c3cnc4cc(F)ccn34)c3c2C(=O)NC3)nc1)N1CCC(O)CC1 [I-526, (S)-4-(7-fluoroimidazo [1,2-a]pyridin-3-yl)-7-((5-(l-(4-hydroxypiperidin-1-yl)ethyl)pyridin-2-yl)amino)isoin-dolin-1-one]
